Test results: US9283234B2, “Compositions and methods for suppressing endometrial proliferation” (REPROS THERAPEUTICS INC., priority 2006, dated 2016)

Assays:
[1] = Measuring serum corticosterone in rats
[2] = estrogenic, androgenic, anti-estrogenic and anti-androgenic activities
From the text: These methods include receptor binding and in vivo bioassays such as anti-McGinty, anti-Clauberg, glucocorticoid, estrogenic, androgenic, anti-glucocorticoid (AG), anti-estrogen, and anti-androgen activities as well as post-coital and anti-ovulatory activities where in the leading compounds of the instant invention are used as a reference.

[3] = Six month endometriosis study: side effects and bleeding; format: in vivo, pre-menopausal adult women; details: for non-menstrual spotting and bleeding with excessive endometrial thickening, D&C performed: treatment phase
Method: Although this was a small study and no definitive conclusions can be made from the safety data, there was no single signal of safety observed.
A similar event was not seen at the 50 mg dose during the treatment phase. Greater than normal bleeding occurred in two patients in the 50 mg CDB-4124 group after treatment was stopped and a D&C was performed in one and the other successfully managed conservatively.

[4] = Six month endometriosis study: estrogen and biomarkers of bone resorption; format: in vivo, pre-menopausal adult women
Method: Thirty-nine pre-menopausal adult women diagnosed with endometriosis were the subject of a six month study of Proellex™ (CDB-4124) in the treatment of endometriosis. The study included three dose levels of CDB-4124 as well as a positive control arm. The positive control was LUCRIN, a GnRH agonist, commonly used for the treatment of endometriosis (also known as LUPRON. CDB-4124 was administered in a double blinded fashion as a daily oral capsule at dosages of 12.5 mg/day (n=2), 25 mg/day (n=3) and 50 mg/day (n=3). Another group (n=4) were injected with a slow release formulation of LUCRIN once per month as a positive control.

[5] = system: endometrium; experiment: Six month endometriosis study: endometrial thickness (ultrasound) / endometrial proliferation; format: in vivo, pre-menopausal adult women
From the text: Comparisons were made to both baseline and visit one ultrasound measurements of endometrial thickness. […]

[6] = Measuring serum cortisol in rats; format: in vivo
[7] = system: pain associated with endometriosis; experiment: Six month endometriosis study: pain diaries and symptom surveys; format: in vivo, pre-menopausal adult women; parameters: key to score for intensity of pain on a bad day: 0-10 scale; 0 = no pain, 10 = extreme pain
Method: Pain reduction also occurred more rapidly than with the active control, LUCRIN. The response of pain to treatment in this study was analyzed in two ways. Patients in the study maintained daily pain diaries to record the severity and frequency of pain. In addition, at each office visit, patients filled out endometriosis symptom surveys that included a questionnaire that evaluated intensity of pain on a bad day on a scale of 0-10 with 10 being the greatest intensity. […] There appeared to be a dose dependent effect on pain reduction. […] This decrease in duration of pain was statistically better (p=0.0012) than the 117.8 (74%; standard deviation 51.4 days) pain free days achieved with LUCRIN. […] Patients on CDB-4124 12.5 mg and 25 mg doses had 115.9 (66%; standard deviation 69.2 days) and 133.6 (75%; standard deviation 27.4 days) pain free days, respectively. […] The 25 mg and 12.5 mg doses of CDB-4124 were not statistically different from LUCRIN. […] The intensity of pain was asked by the question: “On a scale of 1-10, with 0 being no pain and 10 being extreme pain, how intense was your pain on a bad day?” The mean scores for intensity of pain at baseline were 6.3 for the CDB-4124 groups and 6.1 for the LUCRIN group. […] At month three all four active treatment groups had statistically significant reduction in pain compared with baseline, with the following scores: 3.7 (p=0.03) for 12.5 mg CDB-4124, 3.2 (p=0.03) for 25 mg CDB-4124, 1.6 (p=0.015) for 50 mg CDB-4124 and 1.5 (p=0.016) for LUCRIN. These dose related reductions continued until month six when the values for pain intensity were 2.0 (p=0.008), 2.8 (p=0.023), 0.6 (p=0.004) and 0.7 (p=0.016), respectively. Two months after stopping treatment pain returned and was of similar intensity in all four treatment groups.

[8] = Attardi et al., 2002; cited from earlier work

COCC(=O)[C@@]1(OC(C)=O)CC[C@H]2[C@@H]3CCC4=CC(=O)CCC4=C3[C@@H](c3ccc(N(C)C)cc3)C[C@@]21C [CDB-4124, 21-methoxy-17α-acetoxy-11β-(4 N,N-dimethylaminophenyl)-19-norpregna-4,9-diene-3,20-dione]
effect on the primary glucocorticoid of the rat (corticosterone) [1]: no strong effect | differences in serum corticosterone between treatment groups ([1]; progesterone, CDB-4124 and RU-486 groups compared): No differences in serum corticosterone | estrogenic, androgenic, anti-estrogenic, and anti-androgenic activities [2]: lack | non-menstrual spotting and bleeding with excessive endometrial thickening, D&C performed ([3]; 12.5 mg and 25 mg groups): two cases | non-menstrual spotting and bleeding with excessive endometrial thickening, D&C performed ([3]; 50 mg dose): not seen | greater than normal bleeding after treatment was stopped ([3]; 50 mg group): two patients | estrogen concentration (mean) ([4]; all doses of CDB-4124): > 40 pg/mL | biomarkers of bone resorption compared with baseline ([4]; month three (LUCRIN, p=0.023), three and six months (any dose arm of CDB-4124)): no significant changes in biomarkers of bone resorption | women exhibiting thickened endometrium after three months ([5]; 12.5 mg (n=4)): two women | women exhibiting thickened endometrium after three months ([5]; 25 mg (n=4)): One person | women exhibiting thickened endometrium after three months ([5]; 50 mg (n=3)): none of the women | endometrial proliferation in adult females ([5]; high dosage 50 mg/day): suppresses endometrial proliferation | endometrial proliferation in adult females ([5]; lower dosages 25 mg/day and 12.5 mg/day): does not suppress endometrial proliferation | serum cortisol versus control group ([6]; 10 mg/kg, 21 days of chronic dosing, FIG. 1): significantly higher levels of serum cortisol | dose-dependent effect on serum cortisol ([6]; increasing doses, FIG. 2): increased cortisol | days of pain over the first three months versus highest dose of CDB-4124 or LUCRIN ([7]; 25 mg and 12.5 mg daily oral): more days of pain | relief from pain (intensity) by the first month ([7]; 25 mg and 50 mg groups): Statistically significant relief from pain | days of pain at the end of the first month compared with baseline ([7]; 50 mg, p=0.031): statistically significant reduction in days of pain | distress related to pain over the six month exposure ([7]; all doses, on average): reduced distress related to pain | mean score for intensity of pain on a bad day ([7]; baseline, scale 0-10): 6.3 | score for intensity of pain on a bad day ([7]; month six, 12.5 mg): 2.0 | score for intensity of pain on a bad day ([7]; month six, 25 mg): 2.8 | score for intensity of pain on a bad day ([7]; month six, 50 mg): 0.6 | score for intensity of pain on a bad day ([7]; month three, 12.5 mg): 3.7 | score for intensity of pain on a bad day ([7]; month three, 25 mg): 3.2 | score for intensity of pain on a bad day ([7]; month three, 50 mg): 1.6

CNc1ccc([C@H]2C[C@@]3(C)[C@@H](CC[C@]3(OC(C)=O)C(=O)COC)[C@@H]3CCC4=CC(=O)CCC4=C32)cc1 [CDB-4453, 21-methoxy-17α-acetoxy-11β-(4-N-methylaminophenyl)-19-norpregna-4,9-diene-3,20-dione]
anti-glucocorticoid activity relative to parent CDB-4124 [8]: even lower anti-glucocorticoid activity than its parent
